molecular target: T1, human GnRH receptor (Homo sapiens, UniProt P30968); test: IP-One HTRF assay (inhibition of GnRH-R activation by buserelin); format: cell-based; conditions: IP-One HTRF assay with buserelin (at EC80) stimulation; CHO cells stably expressing human GnRH receptor; tested 20 µM to 1 nM; read-out: Potency IC50
T1 construct: line established by Prof; Thomas Gudermann; host or cells: CHO cells
T1 sequence (P30968 1-328): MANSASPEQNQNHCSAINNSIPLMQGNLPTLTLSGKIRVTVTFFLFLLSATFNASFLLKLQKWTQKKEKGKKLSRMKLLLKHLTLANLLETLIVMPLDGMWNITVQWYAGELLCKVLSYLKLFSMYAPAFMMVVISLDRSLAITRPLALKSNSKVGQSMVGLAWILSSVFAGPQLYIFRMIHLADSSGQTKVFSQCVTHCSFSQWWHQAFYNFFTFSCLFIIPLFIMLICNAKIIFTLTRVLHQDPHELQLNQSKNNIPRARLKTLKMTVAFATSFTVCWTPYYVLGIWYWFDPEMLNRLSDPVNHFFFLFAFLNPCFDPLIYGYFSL
Description: By using homogenous time-resolved fluorescence resonance energy transfer (HTRF), the generation of one component of the GnRH-R signalling cascade can be measured. After stimulation of CHO cells stably expressing human GnRH receptor (established by Prof. Thomas Gudermann, currently University of Marburg, Germany; supplied as frozen cell aliquots by Cell Culture Services, Hamburg, Germany) with the EC80 of the GnRH agonist buserelin, Gq protein-coupled receptor signalling cascade is activated resulting in PLC-dependent cleavage of PIP2 to Inositol-1,4,5-triphosphate (IP3) and Diacylglycerol. The second messenger IP3 is degraded intracellularly to myo-inositol. Inhibition of the final degradation step from Inositol-1-phosphate (IP1) to myo-inositol by addition of lithium chloride leads to accumulation of IP1 in the cells. In cell lysates, IP1 can be detected via an antibody-based HTRF detection technology, where IP1 can displace the FRET acceptor IP1-d2 from binding by Terbium-labelled anti-IP1 antibody as donor resulting in a signal decrease. Compounds were tested for their capability of inhibiting GnRH-R activation by buserelin. For all IP-One HTRF® assays reagents of Cisbio Bioassays (IP-One Tb Jumbo kit, #62IPAPEJ; Cisbio Bioassays, Bagnols sur Cèze Cedex, France) were used.
For the assay, frozen cell aliquots were thawed and a cell suspension (3.33x10^6 cells/ml) containing IP1-d2 (dilution 1:40) was prepared and incubated at 37°C. After 1 h 3 µl of the cell suspension were added to 50 nl of a 100-fold concentrated solution of the test compound in DMSO pre-dispensed in a well of a white low-volume 384-well microtiter plate (Greiner Bio-One, Frickenhausen, Germany). The mixture was incubated for 20 min at 22°C to allow for pre-binding of the test compound to the GnRH-R. The receptor signaling cascade was stimulated by addition of 2 µl buserelin or LHRH (at EC50 or EC80) in stimulation buffer (10 mM Hepes pH 7.4, 1 mM CaCl2, 0.5 mM MgCl2, 4.2 mM KCI, 146 mM NaCl, 5.5 mM α-D-Glucose, 0.05% BSA, 125 mM LiCl (final assay concentration 50 mM) in aqua dest.). Plates were incubated for 1 h at 37°C and 5% carbon dioxide before the cells were lysed by adding 3 µl Terbium-labelled anti-IP1 antibody (1:40) diluted in Conjugate & Lysis buffer as supplied with the kit. After an incubation for 1 h at 22°C to enable complete cell lysis and antibody binding to free IP1 or IP1-d2, plates were measured in an HTRF reader, e.g. a RUBYstar, PHERAstar (both BMG Labtechnologies, Offenburg, Germany) or a Viewlux (PerkinElmer LAS, Rodgau-Jügesheim, Germany). From the fluorescence emissions at 665 nm (FRET) and at 620 nm (background signal of Terbium-antibody), the ratio (emission at 665 nm divided by emission at 620 nm) was calculated and the data were normalized (reaction without test compound = 0% inhibition; all other assay components except agonist = 100% inhibition). On the same microtiter plate, compounds were tested at 10 different concentrations in the range of 20 µM to 1 nM (20 µM, 6.7 µM, 2.2 µM, 0.74 µM, 0.25 µM, 82 nM, 27 nM, 9.2 nM, 3.1 nM and 1 nM; dilution series prepared before the assay at the level of the 100-fold conc. stock solutions by serial 1:3 dilutions in 100% DMSO) in duplicate values for each concentration. By using an in-house software, the IC50 values were calculated by a 4 parameter fit. The data reveal that the compounds of the present invention have antagonist activities on the human GnRH receptor. Within the meaning of the present invention the antagonist activity is reflected by the ability of a compound of the invention to antagonize human GnRH receptor stimulation in IP-One HTRF® assay at least three times the standard deviation over the background level.

Structure (SMILES)	IC50
O=C1CCC2(CC1)c1cc(C(=O)NCc3ccccc3Cl)ccc1N(S(=O)(=O)c1ccc(F)cc1)C2C1CC1 (racemic) [Example 3, N-(2-chlorobenzyl)-2'-cyclopropyl-1'-[(4-fluorophenyl)sulfonyl]-4-oxo-1',2'-dihydrospiro[cyclohexane-1,3'-indole]-5'-carboxamide]	46.8 nM
CC(C)=CCC1N(S(=O)(=O)c2ccc(F)cc2)c2ccc(C(=O)Nc3cncc(C(F)(F)F)c3)cc2C12CCC(O)(C(F)(F)F)CC2 (stereo not drawn) [Example 19, 1'-[(4-fluorophenyl)sulfonyl]-4-hydroxy-2'-(3-methylbut-2-en-1-yl)-4-(trifluoromethyl)-N-[5-(trifluoromethyl)pyridin-3-yl]-1',2'-dihydrospiro[cyclohexane-1,3'-indole]-5'-carboxamide]	9400 nM
COc1cccc(S(=O)(=O)N2c3ccc(C(=O)Nc4ccon4)cc3C3(CCC(O)(C(F)(F)F)CC3)C2C2CC2)c1 (stereo not drawn) [Example 38, 2'-cyclopropyl-4-hydroxy-1'-[(3-methoxyphenyl)su Ifonyl]-N-(1,2-oxazol-3-yl)-4-(trifluoromethyl)-1',2'-dihydrospiro[cyclohexane-1,3'-indole]-5'-carboxamide]	1680 nM
O=C(Nc1ccon1)c1ccc2c(c1)C1(CCC(O)(C(F)(F)F)CC1)C(C1CC1)N2S(=O)(=O)c1cccc(C(=O)N2CCC2)c1 (stereo not drawn) [Example 57, 1'-{[3-(azetidin-1-ylcarbonyl)phenyl]sulfonyl}-2'-cyclopropyl-4-hydroxy-N-(1,2-oxazol-3-yl)-4-(trifluoromethyl)-1',2'-dihydrospiro[cyclohexane-1,3'-indole]-5'-carboxamide]	1220 nM
O=C(NCc1ncccc1C(F)(F)F)c1ccc2c(c1)C1(CCC(O)(C(F)(F)F)CC1)C(C1CC1)N2S(=O)(=O)c1ccc(F)cc1 (single isomer, unassigned) [Example 65-2]	116 nM
O=C(NCc1ncccc1Cl)c1ccc2c(c1)C1(CCC(O)(C(F)(F)F)CC1)C(C1CC1)N2S(=O)(=O)c1ccc(F)cc1 (racemic) [Example 1, N-[(3-chloropyridin-2-yl)methyl]-2'-cyclopropyl-1'-[(4-fluorophenyl)sulfonyl]-4-hydroxy-4-(trifluoromethyl)-1',2'-dihydrospiro[cyclohexane-1,3'-indole]-5'-carboxamide]	354 nM
COc1cccc(S(=O)(=O)N2c3ccc(C(=O)Nc4ncco4)cc3C3(CCC(O)(C(F)(F)F)CC3)C2C2CC2)c1 (stereo not drawn) [Example 41, 2'-cyclopropyl-4-hydroxy-1'-[(3-methoxyphenyl)su Ifonyl]-N-(1,3-oxazol-2-yl)-4-(trifluoromethyl)-1',2'-dihydrospiro[cyclohexane-1,3'-indole]-5'-carboxamide]	1490 nM
O=C(O)c1cccc(S(=O)(=O)N2c3ccc(C(=O)Nc4ccon4)cc3C3(CCC(O)(C(F)(F)F)CC3)C2C2CC2)c1 (stereo not drawn) [Example 48, 3-{[2'-cyclopropyl-4-hydroxy-5'-(1,2-oxazol-3-ylcarbamoyl)-4-(trifluoromethyl)spiro[cyclohexane-1,3'-indol]-1'(2'H)-yl]sulfonyl}benzoic acid]	6710 nM
O=C(NCC1CC1)c1ccc2c(c1)C1(CCC(O)(C(F)(F)F)CC1)C(C1CC1)N2S(=O)(=O)c1ccc(F)cc1 (stereo not drawn) [Example 59, 2'-cyclopropyl-N-(cyclopropylmethyl)-1'-[(4-fluorophenyl)sulfonyl]-4-hydroxy-4-(trifluoromethyl)-1',2'-dihydrospiro[cyclohexane-1,3'-indole]-5'-carboxamide]	690 nM
COC(=O)c1cccc(NC(=O)c2ccc3c(c2)C2(CCC(O)(C(F)(F)F)CC2)C(C2CC2)N3S(=O)(=O)c2ccc(F)cc2)c1 (single isomer, unassigned) [Example 30-2]	1590 nM
O=C1CCC2(CC1)c1cc(C(=O)NCc3ccccc3Cl)ccc1N(S(=O)(=O)c1ccc(F)cc1)C2C1CC1 (single isomer, unassigned) [Example 3-2]	1020 nM
CC1N(S(=O)(=O)c2ccc(F)cc2)c2ccc(C(=O)NCc3ccccc3Cl)cc2C12CCC(O)(C(F)(F)F)CC2 (stereo not drawn) [Example 26, N-(2-chlorobenzyl)-1'-[(4-fluorophenyl)sulfonyl]-4-hydroxy-2'-methyl-4-(trifluoromethyl)-1',2'-dihydrospiro[cyclohexane-1,3'-indole]-5'-carboxamide]	432 nM
O=C(O)c1cccc(S(=O)(=O)N2c3ccc(C(=O)NCc4ncc(C(F)(F)F)cc4F)cc3C3(CCC(O)(C(F)(F)F)CC3)C2C2CC2)c1 (stereo not drawn) [Example 49, 3-{[2'-cyclopropyl-5'-({[3-fluoro-5-(trifluoromethyl)pyridin-2-yl]methyl}carbamoyl)-4-hydroxy-4-(trifluoromethyl)spiro[cyclohexane-1,3'-indol]-1'(2'H)-yl]sulfonyl}benzoic acid]	4300 nM
CC(C)=CCC1N(S(=O)(=O)c2ccc(F)cc2)c2ccc(C(=O)Nc3ncco3)cc2C12CCC(O)(C(F)(F)F)CC2 (stereo not drawn) [Example 20, 1'-[(4-fluorophenyl)sulfonyl]-4-hydroxy-2'-(3-methylbut-2-en-1-yl)-N-(1,3-oxazol-2-yl)-4-(trifluoromethyl)-1',2'-dihydrospiro[cyclohexane-1,3'-indole]-5'-carboxamide]	655 nM
O=C(NCC1CCCCC1)c1ccc2c(c1)C1(CCC(O)(C(F)(F)F)CC1)C(C1CC1)N2S(=O)(=O)c1ccc(F)cc1 (stereo not drawn) [Example 61, N-(cyclohexylmethyl) -2'-cyclopropyl-1'-[(4-fluorophenyl)sulfonyl]-4-hydroxy-4-(trifluoromethyl)-1',2'-dihydrospiro[cyclohexane-1,3'-indole]-5'-carboxamide]	741 nM
CC(C)=CCC1N(S(=O)(=O)c2ccc(F)cc2)c2ccc(C(=O)Nc3ccon3)cc2C12CCC(O)(C(F)(F)F)CC2 (stereo not drawn) [Example 17, 1'-[(4-fluorophenyl)sulfonyl]-4-hydroxy-2'-(3-methylbut-2-en-1-yl)-N-(1,2-oxazol-3-yl)-4-(trifluoromethyl)-1',2'-dihydrospiro[cyclohexane-1,3'-indole]-5'-carboxamide]	524 nM
O=C(NCc1ncc(C(F)(F)F)cc1F)c1ccc2c(c1)C1(CCC(O)(C(F)(F)F)CC1)C(C1CC1)N2S(=O)(=O)c1cccc(C(=O)N2CCC2)c1 (stereo not drawn) [Example 63, 1'-{[3-(azetidin-1-ylcarbonyl)phenyl]sulfonyl}-2'-cyclopropyl-N-{[3-fluoro-5-(trifluoromethyl)pyridin-2-yl]methyl}-4-hydroxy-4-(trifluoromethyl)-1',2'-dihydrospiro[cyclohexane-1,3'-indole]-5'-carboxamide]	3210 nM
COc1cccc(S(=O)(=O)N2c3ccc(C(=O)Nc4cncc(C(F)(F)F)c4)cc3C3(CCC(O)(C(F)(F)F)CC3)C2C2CC2)c1 (stereo not drawn) [Example 40, 2'-cyclopropyl-4-hydroxy-1'-[(3-methoxyphenyl)su Ifonyl]-4-(trifluoromethyl)-N-[5-(trifluoromethyl)pyridin-3-yl]-1',2'-dihydrospiro[cyclohexane-1,3'-indole]-5'-carboxamide]	5650 nM

Source: EP2881391A1, “Spiroindoline carbocycle derivatives and pharmaceutical compositions thereof” (Bayer Pharma Aktiengesellschaft, priority 2013, dated 2015)
